Results reported in patent US11926614B2, “1,2,4-triazole derivatives as tankyrase inhibitors” (priority 2018, dated 2024).
pIC50: −log10 of the molar value. Read-outs that look alike come from different tables or passages of the source.

Legend:
TNKS2 = TNKS2 (Homo sapiens (Human), UniProt Q9H2K2); test: Biochemical IC50 TNKS2
Text: (§1) XLfit (idbs) was used to determine the IC50-values in inhibition experiments. The following formula was chosen to fit the data points (Langmuir Binding Isotherm): fit=((A+(B*x))+4(C−B)*(1−exp((−1*D)*x)))/D)), res=(y−fit)

HEK293 = test: Cellular IC50 HEK293; format: cell-based
Text: as §1

[1] = read-out: Biochemical IC50 TNKS2
[2] = Homo sapiens, HEK293, HEK293; read-out: Cellular IC50 HEK293
[3] = Homo sapiens, HEK293, read-out: Cellular IC50 HEK293

TNKS2, sequence (Q9H2K2 whole entry): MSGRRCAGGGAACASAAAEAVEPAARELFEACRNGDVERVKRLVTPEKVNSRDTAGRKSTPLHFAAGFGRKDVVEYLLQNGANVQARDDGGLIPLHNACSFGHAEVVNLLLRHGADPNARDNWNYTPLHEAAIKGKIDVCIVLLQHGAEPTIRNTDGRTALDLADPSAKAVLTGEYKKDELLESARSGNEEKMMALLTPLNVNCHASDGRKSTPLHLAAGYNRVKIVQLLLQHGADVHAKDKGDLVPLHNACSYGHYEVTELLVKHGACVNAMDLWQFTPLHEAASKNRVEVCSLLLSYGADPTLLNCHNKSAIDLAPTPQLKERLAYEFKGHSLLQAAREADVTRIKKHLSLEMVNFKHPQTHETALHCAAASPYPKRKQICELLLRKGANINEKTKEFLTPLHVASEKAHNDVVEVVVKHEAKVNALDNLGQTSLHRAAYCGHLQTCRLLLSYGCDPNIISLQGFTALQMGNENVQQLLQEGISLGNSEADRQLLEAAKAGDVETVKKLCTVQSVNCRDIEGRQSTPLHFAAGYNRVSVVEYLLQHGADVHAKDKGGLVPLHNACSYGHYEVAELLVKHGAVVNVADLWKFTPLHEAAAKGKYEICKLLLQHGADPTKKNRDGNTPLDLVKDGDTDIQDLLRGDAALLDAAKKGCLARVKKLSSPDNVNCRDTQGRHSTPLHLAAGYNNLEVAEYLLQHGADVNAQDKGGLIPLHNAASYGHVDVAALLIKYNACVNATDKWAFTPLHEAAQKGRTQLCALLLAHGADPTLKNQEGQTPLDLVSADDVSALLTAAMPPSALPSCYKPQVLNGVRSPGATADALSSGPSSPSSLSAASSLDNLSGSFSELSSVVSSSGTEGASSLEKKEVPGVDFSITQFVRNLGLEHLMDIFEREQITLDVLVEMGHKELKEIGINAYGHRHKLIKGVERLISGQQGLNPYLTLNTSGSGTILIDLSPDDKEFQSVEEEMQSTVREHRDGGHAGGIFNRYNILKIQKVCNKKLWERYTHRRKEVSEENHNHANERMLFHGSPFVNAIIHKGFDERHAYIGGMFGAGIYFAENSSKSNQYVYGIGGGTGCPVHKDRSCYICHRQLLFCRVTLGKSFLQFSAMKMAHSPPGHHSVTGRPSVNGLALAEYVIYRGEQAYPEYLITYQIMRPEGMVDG

Compound	pIC50 (TNKS2; [1])	pIC50 (HEK293; [2])	pIC50 (TNKS2)	pIC50 (HEK293; [3])	pIC50 (HEK293; Homo sapiens, HEK293; read-out: Cellular IC50 HEK293)
CCOc1ccc(-c2nnc([C@H]3C[C@H](NC(=O)c4cccc(C(F)(F)F)n4)C3)n2-c2ccccc2F)nc1 [Example 125, N-((1S,3r)-3-(5-(5-ethoxypyridin-2-yl)-4-(2-fluorophenyl)-4H-1,2,4-triazol-3-yl)cyclobutyl)-6-(trifluoromethyl)picolinamide]	7.55	7.15			
O=C(N[C@H]1C[C@H](c2nnc(-c3nccs3)n2-c2ccccc2Cl)C1)c1ccc(F)cc1 [Example 44, N-((1S,3r)-3-(4-(2-chlorophenyl)-5-(thiazol-2-yl)-4H-1,2,4-triazol-3-yl)cyclobutyl)-4-fluorobenzamide]	7.89	7.30			
[2H]C([2H])([2H])Oc1ccc(-c2nnc([C@H]3C[C@H](NC(=O)c4ccccn4)C3)n2-c2ccccc2F)nc1 [Example 113, N-((1S,3r)-3-(4-(2-fluorophenyl)-5-(5-(methoxy-d3)pyridin-2-yl)-4H-1,2,4-triazol-3-yl)cyclobutyl)picolinamide]		7.13	8.25		
CCOc1ccc(-c2nnc([C@H]3C[C@H](NC(=O)c4ccc5cc(F)ccc5n4)C3)n2-c2ccccc2F)nc1 [Example 155, N-((1S,3r)-3-(5-(5-ethoxypyridin-2-yl)-4-(2-fluorophenyl)-4H-1,2,4-triazol-3-yl)cyclobutyl)-6-fluoroquinoline-2-carboxamide]	8.04	7.92			
O=C(N[C@H]1C[C@H](c2nnc(-c3nccs3)n2-c2ccccc2)C1)c1ccccn1 [Example 32, N-((1r,3r)-3-(4-phenyl-5-(thiazol-2-yl)-4H-1,2,4-triazol-3-yl)cyclobutyl)picolinamide]	7.31	6.64			
O=C(N[C@H]1C[C@H](c2nnc(-c3nccs3)n2-c2ccccn2)C1)c1cccc2cccnc12 [Example 38, N-((1r,3r)-3-(4-(pyridin-2-yl)-5-(thiazol-2-yl)-4H-1,2,4-triazol-3-yl)cyclobutyl)quinoline-8-carboxamide]	7.35	7.34			
CCOc1ccc(-c2nnc([C@H]3C[C@H](NC(=O)c4ccnc5cc(F)cnc45)C3)n2-c2ccc(C)s2)nc1 [Example 84, N-((1r,3r)-3-(5-(5-ethoxypyridin-2-yl)-4-(5-methylthiophen-2-yl)-4H-1,2,4-triazol-3-yl)cyclobutyl)-7-fluoro-1,5-naphthyridine-4-carboxamide]	8.80			9.00	
CCOc1ccc(-c2nnc(C34CC(NC(=O)c5ccnc6cccnc56)(C3)C4)n2-c2ccccn2)nc1 [Example 122, N-(3-(5-(5-ethoxypyridin-2-yl)-4-(pyridin-2-yl)-4H-1,2,4-triazol-3-yl)bicyclo[1.1.1]pentan-1-yl)-1,5-naphthyridine-4-carboxamide]	7.89				7.70
CCOc1ccc(-c2nnc([C@H]3C[C@H](NC(=O)c4cc5cnccc5[nH]4)C3)n2-c2ccccc2F)nc1 [Example 157, N-((1S,3r)-3-(5-(5-ethoxypyridin-2-yl)-4-(2-fluorophenyl)-4H-1,2,4-triazol-3-yl)cyclobutyl)-1H-pyrrolo[3,2-c]pyridine-2-carboxamide]	8.36	7.47			
CCOc1ccc(-c2nnc([C@H]3C[C@H](NC(=O)c4ccnc5cccnc45)C3)n2-c2ccccc2Cl)nc1 [Example 135, N-((1S,3r)-3-(4-(2-chlorophenyl)-5-(5-ethoxypyridin-2-yl)-4H-1,2,4-triazol-3-yl)cyclobutyl)-1,5-naphthyridine-4-carboxamide]	8.72	9.48			
CCOc1ccc(-c2nnc([C@H]3C[C@H](NC(=O)c4cccc5cccnc45)C3)n2-c2cccc(Cl)c2)nc1 [Example 139, N-((1r,3r)-3-(4-(3-chlorophenyl)-5-(5-ethoxypyridin-2-yl)-4H-1,2,4-triazol-3-yl)cyclobutyl)quinoline-8-carboxamide]	8.06	8.40			
O=C(N[C@H]1C[C@H](c2nnc(-c3ccccc3)n2-c2ccccc2F)C1)c1ccnc2cccnc12 [Example 176, N-((1S,3r)-3-(4-(2-fluorophenyl)-5-phenyl-4H-1,2,4-triazol-3-yl)cyclobutyl)-1,5-naphthyridine-4-carboxamide]	8.44	7.55			
O=C(N[C@H]1C[C@H](c2nnc(-c3ccccc3)n2-c2ccccc2F)C1)c1ccc2cnccc2n1 [Example 178, N-((1S,3r)-3-(4-(2-fluorophenyl)-5-phenyl-4H-1,2,4-triazol-3-yl)cyclobutyl)-1,6-naphthyridine-2-carboxamide]	7.68	6.78			
CCOc1ccc(-c2nnc([C@H]3C[C@H](NC(=O)c4cccc5cc[nH]c45)C3)n2-c2ccccc2F)nc1 [Example 115, N-((1S,3r)-3-(5-(5-ethoxypyridin-2-yl)-4-(2-fluorophenyl)-4H-1,2,4-triazol-3-yl)cyclobutyl)-1H-indole-7-carboxamide]	8.00	7.24			
CCOc1ccc(-c2nnc([C@H]3C[C@H](NC(=O)c4ccnc5cccnc45)C3)n2-c2ccncc2)nc1 [Example 168, N-((1r,3r)-3-(5-(5-ethoxypyridin-2-yl)-4-(pyridin-4-yl)-4H-1,2,4-triazol-3-yl)cyclobutyl)-1,5-naphthyridine-4-carboxamide]	8.27			7.89	
CCOc1ccc(-c2nnc(C34CC(NC(=O)c5ccccn5)(C3)C4)n2-c2ccccc2)nc1 [Example 66, N-(3-(5-(5-ethoxypyridin-2-yl)-4-phenyl-4H-1,2,4-triazol-3-yl)bicyclo[1.1.1]pentan-1-yl)picolinamide]	7.46	6.91			
Cc1ccc(-n2c(-c3nccs3)nnc2[C@H]2C[C@H](NC(=O)c3ccccn3)C2)s1 [Example 88, N-((1r,3r)-3-(4-(5-methylthiophen-2-yl)-5-(thiazol-2-yl)-4H-1,2,4-triazol-3-yl)cyclobutyl)picolinamide]	7.33	7.03			
O=C(N[C@H]1C[C@H](c2nnc(-c3ccncn3)n2-c2ccccc2Cl)C1)c1cccc2ncccc12 [Example 7, N-((1S,3r)-3-(4-(2-chlorophenyl)-5-(pyrimidin-4-yl)-4H-1,2,4-triazol-3-yl)cyclobutyl)quinoline-5-carboxamide]	6.46	6.12			
CCOc1ccc(-c2nnc([C@H]3C[C@H](NC(=O)c4ccc(C(C)O)cn4)C3)n2-c2ccccc2F)nc1 (mixture of isomers) [Example 100, rac-N-((1R,3r)-3-(5-(5-ethoxypyridin-2-yl)-4-(2-fluorophenyl)-4H-1,2,4-triazol-3-yl)cyclobutyl)-5-(1-hydroxyethyl)picolinamide]		7.32	8.09		
CCOc1ccc(C(=O)N[C@H]2C[C@H](c3nnc(-c4ccncn4)n3-c3ccccc3Cl)C2)nc1 [Example 130, N-((1R,3r)-3-(4-(2-chlorophenyl)-5-(pyrimidin-4-yl)-4H-1,2,4-triazol-3-yl)cyclobutyl)-5-ethoxypicolinamide]	8.32	8.85			
O=C(N[C@H]1C[C@H](c2nnc(-c3ccncn3)n2-c2ccccc2Cl)C1)c1ncccc1F [Example 18, N-((1S,3r)-3-(4-(2-chlorophenyl)-5-(pyrimidin-4-yl)-4H-1,2,4-triazol-3-yl)cyclobutyl)-3-fluoropicolinamide]	7.43	7.24			
CCOc1ccc(-c2nnc([C@H]3C[C@H](NC(=O)c4cccc5c4OCCO5)C3)n2-c2ccccc2F)nc1 [Example 116, N-((1S,3r)-3-(5-(5-ethoxypyridin-2-yl)-4-(2-fluorophenyl)-4H-1,2,4-triazol-3-yl)cyclobutyl)-2,3-dihydrobenzo[b][1,4]dioxine-5-carboxamide]	8.35	7.33			
O=C(N[C@H]1C[C@H](c2nnc(-c3nccs3)n2-c2ccccc2)C1)c1ccc(F)cc1 [Example 35, 4-fluoro-N-((1r,3r)-3-(4-phenyl-5-(thiazol-2-yl)-4H-1,2,4-triazol-3-yl)cyclobutyl)benzamide]	6.92	6.24			
CCOc1ccc(-c2nnc([C@H]3C[C@H](NC(=O)c4ccccn4)C3)n2-c2cccc(Cl)c2)nc1 [Example 140, N-((1r,3r)-3-(4-(3-chlorophenyl)-5-(5-ethoxypyridin-2-yl)-4H-1,2,4-triazol-3-yl)cyclobutyl)picolinamide]	7.89			7.08	
O=C(N[C@H]1C[C@H](c2nnc(-c3nccs3)n2-c2ccc(Cl)s2)C1)c1ccnc2cccnc12 [Example 78, N-((1r,3r)-3-(4-(5-chlorothiophen-2-yl)-5-(thiazol-2-yl)-4H-1,2,4-triazol-3-yl)cyclobutyl)-1,5-naphthridine-4-carboxamide]	8.70	8.96			
O=C(N[C@H]1C[C@H](c2nnc(-c3ccccc3)n2-c2ccccc2F)C1)c1ccnc2cc(F)cnc12 [Example 177, 7-fluoro-N-((1S,3r)-3-(4-(2-fluorophenyl)-5-phenyl-4H-1,2,4-triazol-3-yl)cyclobutyl)-1,5-naphthyridine-4-carboxamide]	8.42	7.60			
O=C(N[C@H]1C[C@H](c2nnc(-c3ccccn3)n2-c2ccccc2F)C1)c1ccc2cnccc2n1 [Example 192, N-((1S,3r)-3-(4-(2-fluorophenyl)-5-(pyridin-2-yl)-4H-1,2,4-triazol-3-yl)cyclobutyl)-1,6-naphthyridine-2-carboxamide]	8.37	8.28			
O=C(N[C@H]1C[C@H](c2nnc(-c3ccccn3)n2-c2ccccc2F)C1)c1cc(F)cc2nccnc12 [Example 194, 7-fluoro-N-((1S,3r)-3-(4-(2-fluorophenyl)-5-(pyridin-2-yl)-4H-1,2,4-triazol-3-yl)cyclobutyl)quinoxaline-5-carboxamide]	8.70			9.10	
